Common to all, as to test: NCI anticancer screen, dose series, 48 h
Test [1] relates to MCF7 breast.
Test [2] relates to SK-MEL-28 melanoma.
Test [3] concerns UACC-62 melanoma.
For test [4], the system named is SK-MEL-5 melanoma.
The test system of test [5] is MOLT-4 leukemia.
For test [6], the system named is UO-31 renal.
The test system of test [7] is OVCAR-3 ovarian.
Test [8] relates to HOP-62 NSCLC.
Test [9] has as its system RPMI-8226 leukemia.
In test [10] the test system is SF-268 CNS.
Test [11] relates to OVCAR-5 ovarian.

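Briefly, cells in 96-well plates were exposed to five compound concentrations for 48 h, and endpoints were estimated by linear interpolation. TGI: total growth inhibition.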

As for `COc1ccccc1Cn1c2c(c3cc(O)ccc31)C(=O)c1ccccc1C2=O`, the TGI in test [1] was 96.7 µM; in test [2], greater than 100 µM; in test [3] it was 82.9 µM; in [4] it was greater than 100 µM; in [5], greater than 100 µM; in test [6], greater than 100 µM. In addition, the TGI in test [7] was greater than 100 µM; in [8], greater than 100 µM; in [9], 45.7 µM; in test [10] it was 86.1 µM; in [11] it was 34.1 µM.

For the compound `OC(CCN1CCN(CCOC(c2ccc(F)cc2)c2ccc(F)cc2)CC1)c1ccc(Br)cc1` (stereo unspecified), the TGI in [1] was 9.85 µM; in test [2], 7.9 µM; in test [3], 12.7 µM; in test [4] it was 3.3 µM; in test [5], 7.73 µM; in test [6] it was 4.67 µM. Moreover, the TGI in test [7] worked out at 9.66 µM; in test [8], 14.5 µM; in test [9], 6.93 µM; in test [10] it was 17.6 µM; in test [11] it was 29.4 µM.

On to `Cc1nn(C(=O)c2ccccc2O)c2c1C(c1ccc([N+](=O)[O-])cc1)SC(N)=N2` (stereo unspecified), for which the TGI in test [1], in [2], in test [3], in [4], in test [5] and in [6] was greater than 10 µM each time. The TGI in test [7] is 9.95 µM; in test [8] it was greater than 10 µM; in [9] it was greater than 10 µM; in test [10] it was greater than 10 µM; in test [11], greater than 10 µM.

In the case of `C/C(=C\CO)CC[C@@H]1[C@@]2(C)CCCC(C)(C)[C@@H]2CC[C@@]1(C)O`, the TGI stood at 30.8 µM in test [1]; 43.2 µM in test [2]; 27.1 µM in [3]; 31.8 µM in test [4]; 69.2 µM in test [5]; 50.3 µM in test [6]. The TGI in [7] is 27.6 µM; in [9], 36.5 µM; in test [10], 32.4 µM; in test [11], 49.3 µM.

On to `CCCCCc1cc(CCCC)sc1-c1ccco1`, for which the TGI in [1], in test [2], in [3], in test [4], in [5] and in test [6] was greater than 100 µM in each case. The TGI in test [7], in test [8], in test [9], in [10] and in test [11] was greater than 100 µM in each case.

For `Brc1ccc2[nH]cc(-c3csc(-c4c[nH]c5ccc(Br)cc45)n3)c2c1`, the TGI in test [1] came out at 12.9 µM; in test [2], 5.31 µM; in test [3], 4.09 µM; in [4] it was 3.14 µM; in [5], 3.45 µM; in test [6] it was 7.27 µM. In addition, the TGI is 6.95 µM in test [7]; 13.7 µM in test [8]; 3.4 µM in test [9]; 6.12 µM in [10]; 5.6 µM in test [11].

In the case of `CCC(C)C(NC(=O)C(CCCC[N+](=N)N)NC(=O)C(CCCC[N+](=N)N)NC(=O)c1ccc(OC)cc1)C(=O)NC(CCCC[N+](=N)N)C(=O)N1CCCC1C(=O)NC(CCCCN)C(=O)NC(CC(C)C)C(N)=O` (stereo unspecified), the TGI in [1], in test [2], in test [3], in [4], in [5] and in [6] was greater than 100 µM in each case. The TGI in [7], in [8], in test [9], in test [10] and in test [11] was greater than 100 µM in each case.

For the compound `O=c1cccc2n1CC1CNCC2C1` (stereo unspecified), the TGI in test [1], in [2], in [3], in [4], in test [5] and in test [6] was greater than 100 µM throughout. In addition, the TGI in test [7], in test [8], in test [9], in test [10] and in [11] was greater than 100 µM throughout.

Regarding `Brc1ccc(/C(N=N/C(=N\Sc2ccccc2)c2ccc(Br)cc2)=N/Sc2ccccc2)cc1`, the TGI in test [1], in test [2], in test [3], in test [4], in test [5] and in test [6] was greater than 100 µM each time. The TGI in [7], in [8], in [9], in test [10] and in test [11] was greater than 100 µM in each case.

For the compound `O=C(O)C12C3C4(C(=O)O)C1C1(C(=O)O)C2C3(C(=O)O)C41` (stereo unspecified), the TGI in test [1], in test [2], in [3], in test [4], in test [5] and in [6] was greater than 100 µM each time. Besides, the TGI in test [7], in test [8], in [9], in test [10] and in [11] was greater than 100 µM in each case.

On to `C[C@@](Br)(C(=O)O)[C@H](Br)C(=O)O`, for which the TGI in [1], in test [2], in test [3], in test [4], in [5] and in test [6] was greater than 100 µM throughout. The TGI in test [7], in test [8], in test [9], in test [10] and in [11] was greater than 100 µM in each case.

In the case of `COC(=O)[C@@H]1[C@H]2CC[C@]3(C)[C@@H](OC(C)=O)CC[C@H]3[C@@H]2CC[C@H]1C1(C)SCCS1`, the TGI in test [1] was 83 µM; in [2] it was greater than 100 µM; in test [3], greater than 100 µM; in test [4] it was 21.4 µM; in test [5] it was 59.3 µM; in test [6], greater than 100 µM. Further, the TGI in test [7] was 88.5 µM; in test [8], 53.6 µM; in test [9], 43.4 µM; in [10], greater than 100 µM; in test [11] it was 50.8 µM.

(Values after PubChem BioAssay (NCI).)
